{"source": "patent US20080234197A1", "about": "“Method(s) of stabilizing and potentiating the actions and administration of brain-derived neurotrophic factor (BDNF)” (priority 2007, published 2008)", "origin": "cited, not measured here", "molecules": {"B1": {"name": "BDNF: brain-derived neurotrophic factor, a neurotrophin protein (protein, UniProt P23560 19-247, looked up)", "Neurotrophic factor BDNF …": "APMKEANIRGQGGLAYPGVRTHGTLESVNGPKAGSRGLTSLADTFEHVIEELLDEDQKVRPNEENNKDADLYTSRVMLSSQVPLEPPLLFLLEEYKNYLDAANMSMRVRRHSDPARRGELSVCDSISEWVTAADKKTAVDMSGGTVTVLEKVPVSKGQLKQYFYETKCNPMGYTKEGCRGIDKRHWNSQCRTTQSYVRALTMDSKKRIGWRFIRIDTSCVCTLTIKRGR"}}, "key": {"[1]": {"tested_on": "syntaxin 3", "settings": "upon addition of fatty acid"}, "[2]": {"tested_on": "glioma cells"}, "[3]": {"tested_on": "spinal cord neurons"}, "[4]": {"tested_on": "ARH explants", "settings": "100 ng/ml for 72 hours, explants from neonatal mice, vs control"}, "[5]": {"tested_on": "NPY and POMC neurons in the hypothalamus", "settings": "ob/ob mice, after administration"}, "[6]": {"tested_on": "db/db mice", "settings": "once or twice per week (70 mg/kg/wk) for 3 weeks, vs control"}}, "note": "Read-outs that look alike come from different tables or passages of the source.", "data": [{"molecule": "CCCCC/C=C\\C/C=C\\C/C=C\\C/C=C\\CCCC(=O)O", "note": "[AA, arachidonic acid]", "values": [{"measurement": "intrinsic tyrosine fluorescence of syntaxin 3", "setting": "[1]", "value": "marked changes"}, {"measurement": "dopamine uptake", "setting": "[2]; 20-160 microM, pre-incubated 15-30 min", "value": "stimulated"}, {"measurement": "dopamine uptake", "setting": "[2]; 160 microM, longer pre-exposures 45-60 min", "value": "inhibited"}, {"measurement": "expression of BDNF", "setting": "[3]; 2-hour exposure, spinal cord neurons", "value": "markedly diminished"}]}, {"molecule": "CC/C=C\\C/C=C\\C/C=C\\CCCCCCCC(=O)O", "note": "[ALA, alpha-linolenic acid]", "values": [{"measurement": "intrinsic tyrosine fluorescence of syntaxin 3", "setting": "[1]", "value": "marked changes"}]}, {"molecule": "CCCCC/C=C\\C/C=C\\CCCCCCCC(=O)O", "note": "[LA, cis-linoleic acid]", "values": [{"measurement": "intrinsic tyrosine fluorescence of syntaxin 3", "setting": "[1]", "value": "marked changes"}]}, {"molecule": "CN1CCCC1c1cccnc1", "note": "(centres unmarked) [nicotine]", "values": [{"measurement": "protection against arachidonic acid-induced apoptosis of spinal cord neurons", "setting": "[3]", "value": "fully protected"}, {"measurement": "prevention of arachidonic acid-induced decrease of BDNF expression", "setting": "[3]; pretreatment with 10-microM", "value": "fully prevented"}]}, {"molecule": "CCCCCCCC/C=C\\CCCCCCCC(=O)O", "note": "[oleic acid]", "values": [{"measurement": "intrinsic tyrosine fluorescence of syntaxin 3", "setting": "[1]", "value": "ineffective"}]}, {"molecule": "leptin: adiposity hormone produced by the white adipose tissue", "values": [{"measurement": "induction of neurites from ARH explants", "setting": "[4]", "value": "significant induction of neurites"}, {"measurement": "time to normalization of synaptic density", "setting": "[5]", "value": "≤ 6", "unit": "h"}]}, {"molecule": "B1", "values": [{"measurement": "blood glucose concentrations", "setting": "[6]", "value": "significantly reduced"}, {"measurement": "hemoglobin A1c (HbA1c)", "setting": "[6]", "value": "significantly reduced"}, {"measurement": "protection against arachidonic acid-induced apoptosis of spinal cord neurons", "setting": "[3]", "value": "fully protected"}]}]}
